Results as given in the supplement of paper PMC10307832.

Key:
Experiment in all cases: relative viability (nuclei count vs DMSO), 5 days (fraction); higher = more cells survive
Bortezomib + Palbociclib = compound: CC(C)C[C@H](NC(=O)[C@H](Cc1ccccc1)NC(=O)c1cnccn1)B(O)O [Bortezomib] + CC(=O)c1c(C)c2cnc(Nc3ccc(N4CCNCC4)cn3)nc2n(C2CCCC2)c1=O [Palbociclib] (partner 0.5 µM)
Method in brief: (§1)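 Values are medians from duplicate plates. Each reflects relative viability, defined as the nuclei count of treated wells over that of vehicle wells. Lung cancer cell lines in 1536-well plates were pin-tool dosed one day after seeding with one drug alone or with a fixed anchor-drug dose plus five library-drug doses (not always all listed) in √10 steps, then fixed, stained and imaged at 4× after 5 days.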

Bortezomib + Vorinostat = compound: CC(C)C[C@H](NC(=O)[C@H](Cc1ccccc1)NC(=O)c1cnccn1)B(O)O [Bortezomib] + O=C(CCCCCCC(=O)Nc1ccccc1)NO [Vorinostat] (partner 1 µM)
Method in brief: as §1

[1] = compound: CC1=CC(=NN1)NC2=CC(=NC(=N2)/C=C/C3=CC=CC=C3)N4CCN(CC4)C + COc1cccc2cc(-c3nc([C@H]4CC[C@H](C(=O)O)CC4)n4ncnc(N)c34)[nH]c12 [OSI-027] (partner 0.5 µM)
Method in brief: as §1

Obatoclax + Linsitinib = compound: COC1=CC(c2cc3ccccc3[nH]2)=N/C1=C\c1[nH]c(C)cc1C [Obatoclax] + C[C@]1(O)C[C@@H](c2nc(-c3ccc4ccc(-c5ccccc5)nc4c3)c3c(N)nccn32)C1 [Linsitinib] (partner 1 µM)
Method in brief: as §1

Row | Cell Line | relative viability (Bortezomib + Palbociclib; first compound 0.0002 µM) | relative viability (Bortezomib + Palbociclib; first compound 0.000632 µM) | relative viability (Bortezomib + Palbociclib; first compound 0.002 µM) | relative viability (Bortezomib + Palbociclib; first compound 0.006325 µM) | relative viability (Bortezomib + Palbociclib; first compound 0.02 µM) | relative viability (Bortezomib + Vorinostat; first compound 0.0002 µM) | relative viability (Bortezomib + Vorinostat; first compound 0.000632 µM) | relative viability (Bortezomib + Vorinostat; first compound 0.002 µM) | relative viability (Bortezomib + Vorinostat; first compound 0.006325 µM) | relative viability (Bortezomib + Vorinostat; first compound 0.02 µM) | relative viability ([1]; first compound 0.08 µM) | relative viability ([1]; first compound 0.253 µM) | relative viability ([1]; first compound 0.8 µM) | relative viability ([1]; first compound 2.53 µM) | relative viability ([1]; first compound 8 µM) | relative viability (Obatoclax + Linsitinib; first compound 0.01 µM) | relative viability (Obatoclax + Linsitinib; first compound 0.03162 µM) | relative viability (Obatoclax + Linsitinib; first compound 0.1 µM) | relative viability (Obatoclax + Linsitinib; first compound 0.3162 µM) | relative viability (Obatoclax + Linsitinib; first compound 1 µM)
1 | NCI-H2085 | 0.464 | 0.475 | 0.458 | 0.253 | 0.232 | 0.753 | 0.78 | 0.83 | 0.255 | 0.217 | 0.728 | 0.755 | 0.758 | 0.334 | 0.193 | 0.969 | 0.85 | 0.856 | 0.602 | 0.523
2 | NCI-H2087 | 0.218 | 0.246 | 0.156 | 0.0525 | 0.036 | 0.465 | 0.886 | 0.555 | 0.0577 | 0.0279 | 0.622 | 0.295 | 0.537 | 0.196 | 0.109 | 0.949 | 0.773 | 0.748 | 0.429 | 0.264
3 | NCI-H2126 | 0.365 | 0.349 | 0.369 | 0.328 | 0.208 | 0.693 | 0.875 | 0.751 | 0.641 | 0.478 | 0.74 | 0.747 | 0.675 | 0.596 | 0.37 | 0.684 | 0.713 | 0.722 | 0.712 | 0.705
4 | NCI-H2228 | 0.587 | 0.843 | 0.72 | 0.0946 | 0.0943 | 0.694 | 0.73 | 0.101 | 0.124 | 0.108 | 0.566 | 0.595 | 0.557 | 0.0751 | 0.0577 | 0.536 | 1.03 | 1.12 | 0.445 | 0.448
5 | NCI-H2347 | 0.401 | 0.497 | 0.406 | 0.292 | 0.231 | 0.621 | 0.526 | 0.384 | 0.28 | 0.235 | 0.37 | 0.431 | 0.465 | 0.347 | 0.197 | 0.915 | 0.91 | 0.787 | 0.91 | 0.909
6 | NCI-H2405 | 0.503 | 0.547 | 0.349 | 0.143 | 0.141 | 0.977 | 1.02 | 0.812 | 0.133 | 0.119 | 0.619 | 0.571 | 0.651 | 0.373 | 0.209 | 0.936 | 1.11 | – | 0.866 | 0.87
7 | NCI-H3122 | 0.197 | 0.204 | 0.205 | 0.135 | 0.102 | 0.993 | 1.07 | 1.46 | 0.515 | 0.108 | 0.901 | 0.763 | 0.975 | 0.675 | 0.186 | 1.01 | 1.02 | 1.04 | 0.97 | 1.01
